Data from patent US20200230207A1, “TREATMENT OF BONE GROWTH DISORDERS” (FONDAZIONE TELETHON, priority 2015, published 2020).

What was measured:
[1] = test system: MPS VII primary chondrocytes; experiment: mTORC1 signaling and autophagy flux in MPS VII primary chondrocytes treated with Torin1; type: cell-based, mouse; details: 1 μM, 24 hours
Protocol: FIG. 28: Pharmacological inhibition of mTORC1 restores autophagy flux in MPS VII chondrocytes. α-b, biochemical analysis in primary chondrocytes treated with Torin1 (1 μM) for 24 hours (a) and quantification (b). Data shown in (b) are mean+SE of 3 independent experiments.
Primary chondrocytes were isolated from the rib cage of P5 mice (wild-type and MPS VII) and were plated at the density of 10^5 cells/cm^2. After 3 days in culture cells were splitted in 12 wells chamber, synchronized with AA, treated with Torin1 (1 μM) for 24 hours and harvested for biochemical analysis.

GusbKO RCS cells = experiment: UVRAG phosphorylation and AV-Lys fusion in GusbKO RCS chondrocytes; type: cell-based, rat; details: 1 μM, 6h
Protocol: FIG. 32: mTORC1 inhibits AV-Lys fusion in MPS via UVRAG. A, immunoprecipitation assay testing the increase of UVRAG phosphorylation in RCS GusbKO relative to RCS WT cells. The increase is blunted in the presence of Torin-1 (1 μM; 6h). B, immunoprecipitation assay testing physical interactions between endogenous UVRAG, Rubicon and Beclin-1 in RCS WT and GusbKO RCS chondrocytes after 6h amino acid treatment. Cell lysates were immunoprecipitated with an UVRAG-specific antibody followed by probing with antibodies specific for P-UVRAG (S498), UVRAG, Rubicon or Beclin-1. C, myc-UVRAG was transiently expressed in Gusb^−/− primary chondrocytes. Myc expression, LC3 and P62 were monitored by fluorescence microscope two days post-transfection and after 24h amino acid treatment. Scale bar, 10 μm. Quantitative analysis of P62 and LC3 puncta. Mean value is shown as a horizontal bar. (Student's t-test, *** p<0.0005, n≥20). […] Blot is representative of 3 independent experiments. E, quantification of protein amount normalized to β-actin and relative to RCS WT (ANOVA, P62 P<0.0001, Tukey's post-hoc test, ***p<0.0005, **p<0.005, *p<0.05). […] Scale bar, 10 μm. Quantification of Lamp-1-LC3 co-localization is shown as mean (±s.e.m.) of Mander's Coefficients resulting from three independent experiments (Student's t-test, *p<0.05).

young rats = details: cited from earlier work
[2] = test system: kidney transplanted children; details: small series of kidney transplanted children; cited from earlier work

SMILES	LC3 II and p62 levels [1]	autophagy defects [1]	phosphorylation of mTORC1 substrates [1]	UVRAG serine 497 (S497) phosphorylation (GusbKO RCS cells)	longitudinal growth (young rats; rats)	angiogenesis, proliferation and hypertrophy of growth cartilage chondrocytes (young rats; young rats)	growth rate compared with control group not treated [2]
CCC(=O)N1CCN(c2ccc(-n3c(=O)ccc4cnc5ccc(-c6cnc7ccccc7c6)cc5c43)cc2C(F)(F)F)CC1 [Torin1]	normalization	rescues	completely suppresses	blunted			
CO[C@H]1C[C@@H]2CC[C@@H](C)[C@@](O)(O2)C(=O)C(=O)N2CCCC[C@H]2C(=O)O[C@H]([C@H](C)C[C@@H]2CC[C@@H](O)[C@H](OC)C2)CC(=O)[C@H](C)/C=C(\C)[C@@H](O)[C@@H](OC)C(=O)[C@H](C)C[C@H](C)/C=C/C=C/C=C/1C [rapamycin]					impairs longitudinal growth	disrupts angiogenesis and decreases proliferation and hypertrophy of growth cartilage chondrocytes	lower growth rate
